Experimental findings from US6861428B2, “Water-soluble phenylpyridazine compounds and compositions containing the same” (Kowa Co., Ltd., priority 2001, dated 2005) are described below.

Data set [1] is described as follows: Oral absorbability test on rats and/or mice. The format is in vivo. The conditions noted are these: orally administered to mice and/or rats, as in Experiment 3, FIGS. 2 to 6. How it is done: (§1) The compound of Example 83 and the comparative compound 3 were suspended at 2 mg/mL with a 0.5% MC solution in mortars, respectively, and were orally administered to male SD rats at 10 mg/5 mL/kg. Upon elapsed time of 0.25, 0.5, 1, 2, 4, 6 and 8 hours after the administration, blood samples were collected and then centrifuged to provide plasma samples. The plasma levels of the respective compounds were determined by HPLC. […] The compound of Example 83 is, therefore, useful as an orally dosable medicine.
In a similar manner as in Experiment 3, test compounds of Examples 23, 25, 143, 193, 245, 246, 247, 248 and 249 were orally administered to mice and/or rats to test their oral absorbability.

Data set [2] has as its system interleukin-1β production. The experiment in a line: Inhibitory activity against interleukin-1β production (LPS-stimulated HL-60 cells, ELISA). The conditions noted are these: Homo sapiens, 72 h, lipopolysaccharide 10 μg/mL, 3 days, Table 1, read-out: IL-1β production inhibiting activity IC50. The format is cell-based. How it is done: Inhibitory Activity Against Interleukin-1β Production
HL-60 cells were cultured for 4 days until confluence on RPMI 1640 medium with 10% fetal bovine serum (FBS) added thereto. The medium was centrifuged. The supernatant was discarded, and the cells were then suspended at 1×10^6 cells/mL on RPMI 1640 medium with 3% FBS, and lipopolysaccharide was added to give a final concentration of 10 μg/mL. The culture was inoculated at 1 mL/well to a 24-well plate. A sample compound was added at 1 μL/well, followed by culturing for 3 days. Three days later, the amount of interleukin-1β in each culture was determined by ELISA. Each IC50 value was determined by a comparison in yield with a control to which no test sample was added.

The nature of data set [3]: Water solubility test. It counts as physicochemical. The note with it: for Solubility (%): purified water, from amount of water required for dissolution. How it is done:
Each sample compound was weighed in the amount shown in Table 3, to which purified water was added in 0.05 mL aliquots. The solubility (%) of the compound was determined based on the amount of water required for its dissolution.

A short description of data set [4]: Oral absorbability test on rats. The format is in vivo. The conditions noted are these: male SD rats, oral 10 mg/5 mL/kg, suspension in 0.5% MC, 0.25-8 hours, FIG. 1. How it is done:
as §1

Each structure is given as a SMILES string. Bounds are passed on as bounds.

The term IC50 denotes the concentration at which inhibition is half-maximal. As a reminder, the melting point is the temperature, or range, at which the solid turns liquid.

With `COc1ccc(-c2cc(CN)c(=O)n(CC3CC3)n2)cc1F.Cl` [Example 25, 4-aminomethyl-2-cyclopropylmethyl-6-(3-fluoro-4-methoxyphenyl)-2H-pyridazin-3-one hydrochloride], in data set [1], the Oral absorbability entry is recorded as “good absorbability”. In addition, in data set [2], the IC50 came to 2740 nM. Besides, in data set [3], the “Solubility (%)” value came to 0.4%.
In the case of `Cc1cc(-c2cc(CN3CCN(C)CC3)c(=O)n(CC(C)C)n2)ccc1F.Cl.Cl` [Example 83, 6-(4-fluoro-3-methylphenyl)-2-isobutyl-4-(4-methyl-1-piperazinyl)methyl-2H-pyridazin-3-one dihydrochloride], the “Oral absorption (plasma level by HPLC)” value in data set [4] was “good absorption”. In addition, the IC50 in data set [2] came out at 270 nM.
In the case of `Cc1cc(-c2cc(CN3CCN(C)CC3)c(=O)n(CC=Cc3ccc(Cl)cc3)n2)ccc1F.Cl.Cl` [Example 143, 2-(4-chlorocinnamyl)-6-(4-fluoro-3-methylphenyl)-4-(4-methyl-1-piperazinyl)methyl-2H-pyridazin-3-one dihydrochloride], the melting point was 229.7 to 243.3 °C (dec.). Moreover, in data set [1], the Oral absorbability entry is given as “good absorbability”. Besides, in data set [2], the concentration for half-maximal inhibition (IC50) was 8550 nM. Moreover, the “Solubility (%)” value in data set [3] came to 10%.
For the molecule `CNC(=O)c1cc(-c2ccc(OC)c(F)c2)nn(CC2CC2)c1=O` [compound 3, reference compound], the “Oral absorption (plasma level by HPLC)” value in data set [4] was “no substantial absorption”. In addition, the “Dissolution in amount of added water” value in data set [3] (100 mL purified water added) is recorded as “(insoluble)”. For the same molecule, in data set [3], the “Solubility (%)” value is on record as under 0.001%.
